Data reported in patent US10081615B2, “Sulfamate derivative compounds for use in treating or alleviating pain” (Bio-Pharm Solutions Co., Ltd., priority 2013, dated 2018).
Where two headings read alike, the source gives them in different places.

Columns and labels:
[1] = tested on: SNL model; experiment: Antiallodynic activity in the Chung model (SNL, Spinal Nerve Ligation; von Frey); assay type: in vivo, Sprague-Dawley rats
[2] = tested on: hot plate withdrawal latency; experiment: Hot-plate test; assay type: in vivo, ICR mice; conditions: mouse, oral
Protocol: To examine the pain relief effect of the sulfamate derivative compounds, a hot-plate test was conducted referring to Current Protocols in Neuroscience; Behavioral Neuroscience Unit 8.9.
ICR mice (male, 30-35 g; Orient Bio, Korea) were habituated before the test in the test room for 1 hour. Animals were fasted 2 hr before administration of the compounds. […] All compounds were dissolved in a vehicle of 30% (v/v) PEG 400 or 20% (v/v) Tween 80. The control group was treated with vehicle without treatment compounds.
0.5 hr after the administration of compounds, the mice were put on a hot plate pre-heated to 55±1° C. (Hu, X. et al, 2008), and then, the withdrawal latency was measured (cut-off time: 30 sec) until the point when each mouse was taking a paw off from the plate, shaking, licking a paw or hind leg, or jumping from the plate.

[3] = Rattus norvegicus, po, 1 h, read-out: SNL model: ED50 mg/kg

Q: Which ED50 [1, 3] does the source give for `CC1(C)Oc2ccccc2C(COS([NH-])(=O)=O)O1.[Na+]` (centres unmarked) [Example 60, Sodium (((2,2-dimethyl-4H-benzo[d][1,3]dioxin-4-yl)methoxy)sulfonyl)amide Trihydrate] here?
A: 3.5 mg/kg

Q: And the “Hot plate test: effect (%) compared to control” value ([2]; 170 mg/kg administered, time not given)?
A: (196.2%)

Q: Which ED50 ([1]; rat, oral, 1 h, read-out: SNL model: ED50) does the source give for `CC1(C)Oc2ccccc2[C@@H](COS(N)(=O)=O)O1` [Example 2, ((S)-2,2-dimethyl-4H-benzo[d][1,3]dioxin-4-yl)methyl sulfamate] here?
A: 4.5 mg/kg

Q: And the ED50 ([2]; 0.5 h)?
A: 170 mg/kg

Q: With `CC1(C)Oc2ccccc2[C@H](COS([NH-])(=O)=O)O1.[Na+]` [Example 58, Sodium (R)-(((2,2-dimethyl-4H-benzo[d][1,3]dioxin-4-yl)methoxy)sulfonyl)amide Trihydrate] as the compound, how does the ED50 [1, 3] read?
A: 8.9 mg/kg

Q: For `CC1(C)Oc2ccccc2[C@H](COS([NH-])(=O)=O)O1.[K+]` [Example 70, Potassium (R)-(((2,2-dimethyl-4H-benzo[d][1,3]dioxin-4-yl)methoxy)sulfonyl)amide], which response vs control in vivo at 3.5 mg/kg ([1]; Rattus norvegicus, po, 1 h, read-out: SNL model: effect (%) compared to control, rat, oral, 3.5 mg/kg administered, 1 h) is on record?
A: 46.7%

Q: Which results are given for `[NH-]S(=O)(=O)OC[C@H]1OC2(CCCC2)Oc2ccccc21.[Na+]` [Example 65, Sodium (S)-(((4H-spiro[benzo[d][1,3]dioxine-2,1′-cyclopentan]-4-yl)methoxy)sulfonyl)amide]?
A: ED50 ([1]; Rattus norvegicus, po, 0.5 h, read-out: SNL model: ED50 mg/kg): 3.4 mg/kg; melting point: 121.2 to 131.9 °C
